# Experimental data taken from patent EP4800018A1, “PAN-KRAS INHIBITOR AND USE THEREOF IN MEDICINES” (Betta Pharmaceuticals Co., Ltd., priority 2023, dated 2025).
# Like-named read-outs stand apart in the source and are kept apart here.
# Legend:
# Format in all cases: cell-based
# KRAS G12D-cRAF = biological target: T1, KRAS G12D-cRAF (Homo sapiens, UniProt P01116, G12D); experiment: Cellular KRAS G12D-cRAF Binding Inhibition Assay (NanoBRET, AD293 stable cells); conditions: 3 h incubation
# T1 construct: expressed in transfected cells
# T1 sequence (P01116 1-188 isoform P01116-2 G12D): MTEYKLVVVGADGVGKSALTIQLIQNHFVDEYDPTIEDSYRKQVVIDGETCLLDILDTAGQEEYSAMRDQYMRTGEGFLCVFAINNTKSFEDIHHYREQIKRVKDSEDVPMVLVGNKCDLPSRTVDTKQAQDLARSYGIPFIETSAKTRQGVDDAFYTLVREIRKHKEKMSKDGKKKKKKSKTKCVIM
# Procedure: (§1) NanoLuc® luciferase was used as the energy donor, and NanoBRET™ 618 fluorescent ligand labeled with the HaloTag® protein was used as the energy acceptor to detect protein-protein interactions in living cells. AD293 stable cells transfected with KRAS G12D-NanoLuc® luciferase and cRAF RBD-HaloTag® tag protein were seeded in 96-well plates at a cell density of 1×10^4 cells/well. Except for wells with medium added as a blank control, NanoBRET™ 618 fluorescent ligand was added to all other wells, and the plates were cultured overnight in a cell culture incubator. […] The luminescence data were calculated and converted into inhibition percent. The inhibition percent of KRAS G12D-cRAF binding was calculated according to the following formula: Inhibition Percent = (MaxValue−MeasuredValue)/(MaxValue−Blank) × 100% [formula] […] Curve fitting was performed using GraphPad Prism software to obtain IC50 values, see Table 1.
# KRAS G12V-cRAF = biological target: T2, KRAS G12V-cRAF (Homo sapiens, UniProt P01116, G12V); experiment: Cellular KRAS G12V-cRAF Binding Inhibition Assay (NanoBRET, AD293 stable cells); conditions: 3 h incubation
# T2 construct: expressed in transfected cells
# T2 sequence (P01116 1-188 isoform P01116-2 G12V): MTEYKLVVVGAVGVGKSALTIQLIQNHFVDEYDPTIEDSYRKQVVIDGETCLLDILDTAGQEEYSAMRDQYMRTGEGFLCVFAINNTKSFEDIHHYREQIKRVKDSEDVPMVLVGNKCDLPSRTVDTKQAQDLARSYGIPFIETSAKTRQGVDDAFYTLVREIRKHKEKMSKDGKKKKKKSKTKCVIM
# Procedure: as §1, with “AD293 stable cells transfected with KRAS G12D-NanoLuc® luciferase and cRAF RBD-HaloTag® tag protein were seeded in 96-well plates at a cell density of 1×10^4 cells/well.” left out, “G12V-cRAF” for “G12D-cRAF”
# [1] = tested on: KRAS-G12D mutant tumor cells AGS; experiment: Cell Proliferation Inhibition Assay (AGS), Cell-titer GLO, 96 h; conditions: Homo sapiens, AGS, 96 h, read-out: AGS(G12D)
# Procedure: KRAS-G12D mutant tumor cells AGS were seeded in low-attachment 96-well plates at a cell density of 1×10^3 cells/well and cultured overnight in a cell culture incubator. […] After incubation at 37°C for 96 h, 50 µL of Cell-titer GLO working solution was added to each well, mixed by shaking, incubated at room temperature for 10 min, and the Luminescence value was read on a multi-function microplate reader. The luminescence data were calculated and converted into inhibition percent. The inhibition percent of cell proliferation was calculated according to the following formula: Inhibition Percent = (MaxValue−MeasuredValue)/(MaxValue−Blank) × 100% [formula] […] Curve fitting was performed using GraphPad Prism software to obtain IC50 values, see Table 1.
# [2] = tested on: KRAS-G12V mutant tumor cells SW620; experiment: Cell Proliferation Inhibition Assay (SW620), Cell-titer GLO, 96 h; conditions: Homo sapiens, SW-620, 96 h, read-out: SW620(G12V)
# Procedure: KRAS-G12V mutant tumor cells SW620 were seeded in low-attachment 96-well plates at a cell density of 1×10^3 cells/well and cultured overnight in a cell culture incubator. After the cells adhered, the test compounds were added to the 96-well plates at final concentrations of 10000, 2000, 400, 80, 16, 3.2, 0.64, 0.13, 0.03, 0 nM (final concentration of DMSO was 0.5% for all). After incubation at 37°C for 96 h, 50 µL of Cell-titer GLO working solution was added to each well, mixed by shaking, incubated at room temperature for 10 min, and the Luminescence value was read on a multi-function microplate reader. The luminescence data were calculated and converted into inhibition percent. The inhibition percent of cell proliferation was calculated according to the following formula: Inhibition Percent = (MaxValue−MeasuredValue)/(MaxValue−Blank) × 100% [formula]
# ("Max Value" comes from the 0.5% DMSO control well, "Blank" comes from the blank control well, and "Measured Value" comes from the compound-treated well).
# Curve fitting was performed using GraphPad Prism software to obtain IC50 values, see Table 1.
# [3] = AGS cells, 96 h incubation, Cell-titer GLO
# [4] = SW620 cells, 96 h incubation, Cell-titer GLO
SMILES,IC50 (KRAS G12D-cRAF; read-out: NanoBRET KRAS G12D) [nM],IC50 (KRAS G12V-cRAF; read-out: NanoBRET KRAS G12V) [nM],"IC50 [1, 3] [nM]","IC50 [2, 4] [nM]",IC50 (KRAS G12D-cRAF; NanoBRET KRAS G12D) [nM],IC50 (KRAS G12V-cRAF; NanoBRET KRAS G12V) [nM],IC50 [1] [nM],IC50 [2] [nM]
"CC1OCCCn2c(c3c4cc(ccc42)-c2csc(n2)CC(NC(=O)C2CC2C(F)F)C(=O)N2CCCC(N2)C(=O)OCC(C)(C)C3)-c2cc(N3CC(N4CCOCC4)C3)cnc21 [Example 115, (1S,2S)-2-(difluoromethyl)-N-((1^5S,6^3S,4S,Z)-1^5,10,10-trimethyl-1^2-(3-morpholinoazetidin-1-yl) -5,7-dioxo-1^8,1^9,6^1,6^2,6^3,6^4,6^5,6^6-octahydro-1^5H,1^7H-8-oxa-1(13,15)-pyrido[3',2':7,8][1,5]oxazonino[5,6-a]indola-2(4,2)-thiazola-6(1,3)-pyridazinacycloundecaphane-4-yl)cyclopropane-1-carbox amide]",4.28,16.3,1.72,0.9,,,,
"CC1OCCCn2c(c3c4cc(ccc42)-c2csc(n2)CC(NC(=O)C2C(C)C2C)C(=O)N2CCCC(N2)C(=O)OCC(C)(C)C3)-c2cc(CN3CCN(C)CC3)cnc21 [Example 193, (1r,2R,3S)-2,3-dimethyl-N-((1^5S,6^3S,4S,Z)-1^5,10,10-trimethyl-1^2-((4-methylpiperazin-1-yl)methyl)-5,7-dioxo-1^8,1^9,6^1,6^2,6^3,6^4,6^5,6^6-octahydro-1^5H,1^7H-8-oxa-1(13,15)-pyrido[3',2':7,8][1,5]oxazonino[5,6-a]indola-2(4,2)-thiazola-6(1,3)-pyridazinacycloundecaphane-4-yl)cyclopropane-1-car boxamide]",1.2,27.1,0.9,0.2,,,,
"CC1OCCCn2c(c3c4cc(ccc42)-c2csc(n2)CC(NC(=O)C2CC2C(F)F)C(=O)N2CCCC(N2)C(=O)OCC(C)(C)C3)-c2cc(N3CCN(C4CCOCC4)CC3)cnc21 [Example 109, (1S,2S)-2-(difluoromethyl)-N-((1^5S,6^3S,4S,Z)-1^5,10,10-trimethyl-5,7-dioxo-1^2-(4-(tetrahydro-2H -pyran-4-yl)piperazin-1-yl)-18, 1^9,6^1,6^2,6^3 ,6^4,6^5,6^6-octahydro-1^5H,1^7H-8-oxa-1(13,15)-pyrido[3',2' :7,8][1,5]oxazonino[5,6-a]indola-2(4,2)-thiazola-6(1,3)-pyridazinacycloundecaphane-4-yl)cyclo propane-1-carboxamide]",6.2,14.9,1.02,0.2,,,,
"CC1OCCCn2c(c3c4cc(ccc42)-c2csc(n2)CC(NC(=O)C2CC2C(F)F)C(=O)N2CCCC(N2)C(=O)OCC(C)(C)C3)-c2cc(N3CCC(N4CCOCC4)CC3)cnc21 [Example 106, (1S,2S)-2-(difluoromethyl)-N-((1^5S,6^3S,4S,Z)-1^5,10,10-trimethyl-1^2-(4-morpholinopiperidin-1-yl)-5,7-dioxo-1^8,1^9,6^1,6^2,6^3,6^4,6^5,6^6-octahydro-1^5H,1^7H-8-oxa-1(13,15)-pyrido[3',2':7,8][1,5]oxazonino[5,6-a]indola-2(4,2)-thiazola-6(1,3)-pyridazinacycloundecaphane-4-yl)cyclopropane-1-carb oxamide]",6.39,27.4,0.86,0.24,,,,
"C[C@@H]1OCCCn2c(c3c4cc(ccc42)-c2csc(n2)C[C@H](NC(=O)[C@H]2C[C@@H]2C)C(=O)N2CCC[C@H](N2)C(=O)OCC(C)(C)C3)-c2cc(N3CCN(C)CC3)cnc21 [Example 1, (1S,2S)-2-methyl-N-((1^5S,6^3S,4S,Z)-1^5,10,10-trimethyl-1^2-(4-methylpiperazin-1-yl)-5,7-dioxo-1 ^8,1^9,6^1,6^2,6^3,6^4,6^5,6^6-octahydro-1^5H,1^7-oxa-1(13,15)-pyrido[3',2':7,8][1,5]oxazonino[5,6-a]indola-2(4,2)-thiazola-6(1,3)-pyridazinacycloundecaphane-4-yl)cyclopropane-1-carboxamide]",,,,,6.1,29.9,7.86,0.54
"CC1OCCCn2c(c3c4cc(ccc42)-c2csc(n2)CC(NC(=O)C2CC2C(F)F)C(=O)N2CCCC(N2)C(=O)OCC(C)(C)C3)-c2cc(N3CCC(N(C)C)CC3)cnc21 [Example 105, (1S,2S)-2-(difluoromethyl)-N-((1^5S,6^3S,4S,Z)-1^2-(4-(dimethylamino)piperidin-1-yl)-1^5,10,10-trimethyl-5,7-dioxo-1^8,1^9,6^1,6^2,6^3,6^4,6^5,6^6-octahydro-1^5H,1^7H-8-oxa-1(13,15)-pyrido[3',2':7,8][1,5]oxazonino[5,6-a]indola-2(4,2)-thiazola-6(1,3)-pyridazinacycloundecaphane-4-yl)cyclopropane-1-carboxamide]",4.55,16.6,0.69,0.24,,,,

# The next lines start with results.
IC50 (KRAS G12D-cRAF; read-out: NanoBRET KRAS G12D) [nM],IC50 (KRAS G12V-cRAF; read-out: NanoBRET KRAS G12V) [nM],"IC50 [1, 3] [nM]","IC50 [2, 4] [nM]",SMILES,IC50 (KRAS G12D-cRAF; NanoBRET KRAS G12D) [nM],IC50 (KRAS G12V-cRAF; NanoBRET KRAS G12V) [nM],IC50 [1] [nM],IC50 [2] [nM]
5.56,19.9,3.72,0.63,"CC1OCCCn2c(c3c4cc(ccc42)-c2csc(n2)CC(NC(=O)C2CC2C(F)F)C(=O)N2CCCC(N2)C(=O)OCC(C)(C)C3)-c2cc(N3CCN(C4CC4)CC3)cnc21 [Example 85, (1S,2S)-N-((1^5S,6^3S,4S,Z)-1^2-(4-cyclopropylpiperazin-1-yl)-15,10,10-trimethyl-5,7-dioxo-1^8,1^9,6 ,6^2,6^3,6^4,6^5,6^6-octahydro-1^5H,1^7H-8-oxa-1(13,15)-pyrido[3',2':7,8][1,5]oxazonino[5,6-a]indola-2(4,2)-thiazola-6(1,3)-pyridazinacycloundecaphane-4-yl)-2-(difluoromethyl)cyclopropane-1-car boxamide]",,,,
7.74,22.2,0.85,0.21,"CC1OCCCn2c(c3c4cc(ccc42)-c2csc(n2)CC(NC(=O)C2CC2C(F)F)C(=O)N2CCCC(N2)C(=O)OCC(C)(C)C3)-c2cc(N3CCC4(CCN(C)CC4)CC3)cnc21 [Example 103, (1S,2S)-2-(difluoromethyl)-N-((1^5S,6^3S,4S,Z)-1^5,10,10-trimethyl-1^2-(9-methyl-3,9-diazaspiro[5. 5]undecan-3-yl)-5,7-dioxo-1^8,1^9,6^1,6^2,6^3,6^4,6^5,6^6-octahydro-1^5H,1^7H-8-oxa-1(13,15)-pyrido[3',2': 7,8][1,5]oxazonino[5,6-a]indola-2(4,2)-thiazola-6(1,3)-pyridazinacycloundecaphane-4-yl)cyclop ropane-1-carboxamide]",,,,
4.55,14.7,2.8,0.6,"CC1OCCCn2c(c3c4cc(ccc42)-c2csc(n2)CC(NC(=O)C2CC2C(F)F)C(=O)N2CCCC(N2)C(=O)OCC(C)(C)C3)-c2cc(N3CCC4(CC3)COC4)cnc21 [Example 125, (1S,2S)-2-(difluoromethyl)-N-((1^5S,6^3S,4SZ)-1^5,10,10-trimethyl-5,7-dioxo-1^2-(2-oxa-7-azaspiro [3.5]nonan-7-yl)-1^8,1^9,6^1,6^2,6^3,6^4,6^5,6^6-octahydro-1^5H,1^7H-8-oxa-1(13,15)-pyrido[3',2':7,8][1,5]oxazonino[5,6-a]indola-2(4,2)-thiazola-6(1,3)-pyridazinacycloundecaphane-4-yl)cyclopropane-1-carboxamide]",,,,
